Laboratory results taken from PMC7311426, “An amphipathic peptide with antibiotic activity against multidrug-resistant Gram-negative bacteria” (Nature Communications, 2020).
≈ marks a conversion by molar mass, not a printed value. Read-outs that look alike come from different tables or passages of the source.

What was measured:
Assay in all cases: microbe, parasite or virus in culture
[1] = system: A. baumannii clinical isolates
Protocol: The in vitro activity of AA139 and comparator antimicrobials was determined in two panels of clinical isolates of E. coli, K. pneumoniae, P. aeruginosa, and A. baumannii (Supplementary Table 3), and MIC90 presented. The US panel consisted of 331 clinical isolates from 2010 to 2012. It was tested by BMD in accordance with the CLSI guidelines (M07-A9, 2012)[39]. […] AA139 was diluted in 0.01% acetic acid/0.1% bovine serum albumin. Sterile polypropylene culture cluster round-bottom 96-well plates (Costar # 3879) were used for testing. The worldwide panel consisted of 445 clinical isolates from 2011 to 2013, geographically divided into Asia, Europe, North America, and Rest of World (Middle East, Latin America, Africa, and South Pacific) with each region representing ~25% of the isolates. It was tested by broth microdilution in accordance with the CLSI guidelines (M07-A9, 2012)[39]. […] The test media was CAMHB (Becton Dickinson). AA139 and polymyxin B were tested in media supplemented with 0.002% Tween 80 (Calbiochem). MIC90 values were calculated for all or subsets of the isolates. MIC correlation between AA139 and colistin was analyzed with data from the US panel.

P. aeruginosa = settings: Pseudomonas aeruginosa
Outline: (§1)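 Broth microdilution in MHB, 2-fold 12-point series from 128 or 64 down to 0.06 or 0.03 μg mL^−1, 5 × 10^5 CFU mL^−1. Extra runs in CAMHB per CLSI and in MHB with 1% agarose; n ≥ 6.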

K. pneumoniae = settings: Klebsiella pneumoniae
Outline: as §1

[2] = A. baumannii, worldwide isolates 2011-2013, n = 108

For `C[C@H]1COc2c(N3CCN(C)CC3)c(F)cc3c(=O)c(C(=O)O)cn1c23` [LEV, levofloxacin, reference compound], the MIC50 [1, 2] was 16 µg/mL (≈ 44.3 µM), the MIC90 [1, 2] was > 32 µg/mL and the “Number of isolates with MIC 0.03 (MIC frequency distribution)” value ([1]; A. baumannii, worldwide isolates 2011-2013, n = 108, count of isolates at MIC 0.03) was 1. The “Number of isolates with MIC 0.06 (MIC frequency distribution)” value ([1]; A. baumannii, worldwide isolates 2011-2013, n = 108, count of isolates at MIC 0.06) was 4, the “Number of isolates with MIC 0.125 (MIC frequency distribution)” value ([1]; A. baumannii, worldwide isolates 2011-2013, n = 108, count of isolates at MIC 0.125) was 8 and the “Number of isolates with MIC 0.25 (MIC frequency distribution)” value ([1]; A. baumannii, worldwide isolates 2011-2013, n = 108, count of isolates at MIC 0.25) was 2. The “Number of isolates with MIC 0.5 (MIC frequency distribution)” value ([1]; A. baumannii, worldwide isolates 2011-2013, n = 108, count of isolates at MIC 0.5) was 3, the “Number of isolates with MIC 1 (MIC frequency distribution)” value ([1]; A. baumannii, worldwide isolates 2011-2013, n = 108, count of isolates at MIC 1) was 0 and the “Number of isolates with MIC 2 (MIC frequency distribution)” value ([1]; A. baumannii, worldwide isolates 2011-2013, n = 108, count of isolates at MIC 2) was 0. For the same compound, the “Number of isolates with MIC 4 (MIC frequency distribution)” value ([1]; A. baumannii, worldwide isolates 2011-2013, n = 108, count of isolates at MIC 4) was 6, the “Number of isolates with MIC 8 (MIC frequency distribution)” value ([1]; A. baumannii, worldwide isolates 2011-2013, n = 108, count of isolates at MIC 8) was 22 and the “Number of isolates with MIC 16 (MIC frequency distribution)” value ([1]; A. baumannii, worldwide isolates 2011-2013, n = 108, count of isolates at MIC 16) was 20. For the same compound, the “Number of isolates with MIC 32 (MIC frequency distribution)” value ([1]; A. baumannii, worldwide isolates 2011-2013, n = 108, count of isolates at MIC 32) was 19, the “Number of isolates with MIC 64 (MIC frequency distribution)” value ([1]; A. baumannii, worldwide isolates 2011-2013, n = 108, count of isolates at MIC 64) was 0 and the “Number of isolates with MIC 128 (MIC frequency distribution)” value ([1]; A. baumannii, worldwide isolates 2011-2013, n = 108, count of isolates at MIC 128) was 0. The “Number of isolates with MIC >16 (MIC frequency distribution)” value ([1]; A. baumannii, worldwide isolates 2011-2013, n = 108, count of isolates at MIC >16) was 0, the “Number of isolates with MIC >32 (MIC frequency distribution)” value ([1]; A. baumannii, worldwide isolates 2011-2013, n = 108, count of isolates at MIC >32) was 23 and the “Number of isolates with MIC >128 (MIC frequency distribution)” value ([1]; A. baumannii, worldwide isolates 2011-2013, n = 108, count of isolates at MIC >128) was 0. For the same compound, the “Number of isolates with MIC ≤0.015 (MIC frequency distribution)” value ([1]; A. baumannii, worldwide isolates 2011-2013, n = 108, count of isolates at MIC ≤0.015) was 0, the MIC90 ([1]; Acinetobacter baumannii) was > 32 µg/mL and the MIC (P. aeruginosa; ATCC27853, read-out: MIC, broth microdilution, P. aeruginosa ATCC 27853 spontaneous mutant, AA139 selection 4X, plate 1, colony 2, drug-free passage 1) was 2 µg/mL (≈ 5.53 µM). It also gave an MIC (P. aeruginosa; ATCC27853, read-out: MIC, broth microdilution, P. aeruginosa ATCC 27853 spontaneous mutant, AA139 selection 4X, plate 1, colony 3, drug-free passage 5) of 2 µg/mL (≈ 5.53 µM), an MIC (P. aeruginosa; ATCC27853, read-out: MIC, broth microdilution, P. aeruginosa ATCC 27853 spontaneous mutant, AA139 selection 4X, plate 1, colony 4, drug-free passage 1) of 2 µg/mL (≈ 5.53 µM) and an MIC (P. aeruginosa; ATCC27853, read-out: MIC, broth microdilution, P. aeruginosa ATCC 27853 spontaneous mutant, AA139 selection 4X, plate 1, colony 5, drug-free passage 1) of 2 µg/mL (≈ 5.53 µM). The MIC (P. aeruginosa; ATCC27853, read-out: MIC, broth microdilution, P. aeruginosa ATCC 27853 spontaneous mutant, AA139 selection 4X, plate 1, colony 5, drug-free passage 5) was 2 µg/mL (≈ 5.53 µM), the MIC (P. aeruginosa; ATCC27853, read-out: MIC, broth microdilution, P. aeruginosa ATCC 27853 spontaneous mutant, AA139 selection 4X, plate 1, colony 6, drug-free passage 1) was 2 µg/mL (≈ 5.53 µM) and the MIC (P. aeruginosa; ATCC27853, read-out: MIC, broth microdilution, P. aeruginosa ATCC 27853 spontaneous mutant, AA139 selection 4X, plate 2, colony 1, drug-free passage 1) was 2 µg/mL (≈ 5.53 µM). It also gave an MIC (P. aeruginosa; ATCC27853, read-out: MIC, broth microdilution, P. aeruginosa ATCC 27853 spontaneous mutant, AA139 selection 4X, plate 2, colony 2, drug-free passage 1) of 2 µg/mL (≈ 5.53 µM), an MIC (P. aeruginosa; ATCC27853, read-out: MIC, broth microdilution, P. aeruginosa ATCC 27853 spontaneous mutant, AA139 selection 8X, plate 1, colony 1, drug-free passage 5) of 2 µg/mL (≈ 5.53 µM) and an MIC (P. aeruginosa; ATCC27853, read-out: MIC, broth microdilution, P. aeruginosa ATCC 27853 spontaneous mutant, AA139 selection 8X, plate 1, colony 2, drug-free passage 1) of 2 µg/mL (≈ 5.53 µM). The MIC (P. aeruginosa; read-out: MIC, broth microdilution, P. aeruginosa UNT 138-1 spontaneous mutant, AA139 selection 4X, plate 1, colony 1, drug-free passage 1) was 2 µg/mL (≈ 5.53 µM), the MIC (K. pneumoniae; read-out: MIC, broth microdilution, K. pneumoniae 3010 spontaneous mutant, AA139 selection 4X, plate 1, colony 1, drug-free passage 1) was 0.06 µg/mL (≈ 0.166 µM) and the MIC (K. pneumoniae; read-out: MIC, broth microdilution, K. pneumoniae 3010 spontaneous mutant, AA139 selection 4X, plate 1, colony 1, drug-free passage 5) was 0.06 µg/mL (≈ 0.166 µM). For the same compound, the MIC (K. pneumoniae; read-out: MIC, broth microdilution, K. pneumoniae 3010 spontaneous mutant, AA139 selection 8X, plate 1, colony 1, drug-free passage 1) was 0.06 µg/mL (≈ 0.166 µM) and the MIC (K. pneumoniae; read-out: MIC, broth microdilution, K. pneumoniae 3010 spontaneous mutant, AA139 selection 8X, plate 1, colony 1, drug-free passage 5) was 0.06 µg/mL (≈ 0.166 µM).
